Data: ChEMBL document CHEMBL4219190, “Studies on synthesis of novel pyrido[2,3-d]pyrimidine derivatives, evaluation of their antimicrobial activity and molecular docking” (Bioorg Med Chem Lett, 2018)
Values after ≈ are worked out from the molar mass of the structure shown. Active and inactive are the calls of the source. No cut-off for these calls is given here.

How the values were obtained:
Staphylococcus aureus [1] = assay: Antibiofilm activity against Staphylococcus aureus MTCC 96 after 24 hrs by crystal violet staining-based assay; type: functional, organism-based; conditions: Staphylococcus aureus, MTCC 96, 24 h; read-out: IC50
Pseudomonas aeruginosa [2] = assay: Bactericidal activity against Pseudomonas aeruginosa MTCC 2453 incubated for 24 hrs followed by transfer of microbial suspension to Mueller Hinton agar plates and measured after 24 hrs post transfer; type: functional; conditions: MTCC 2453, 24 h
Candida albicans [3] = assay: Antifungal activity against Candida albicans MTCC 3958 after 24 hrs by well diffusion method; type: functional; conditions: MTCC 3958, 24 h
Candida albicans [4] = assay: Antifungal activity against Candida albicans MTCC 854 after 24 hrs by well diffusion method; type: functional; conditions: MTCC 854, 24 h
Micrococcus luteus [5] = assay: Bactericidal activity against Micrococcus luteus MTCC 2470 incubated for 24 hrs followed by transfer of microbial suspension to Mueller Hinton agar plates and measured after 24 hrs post transfer; type: functional; conditions: MTCC 2470, 24 h
Staphylococcus aureus [6] = assay: Antibacterial activity against Staphylococcus aureus MTCC 96 after 24 hrs by well diffusion method; type: functional; conditions: MTCC 96, 24 h
Candida parapsilosis [7] = assay: Fungicidal activity against Candida parapsilosis MTCC 1744 incubated for 24 hrs followed by transfer of microbial suspension to Sabouraud dextrose agar plates and measured after 24 hrs post transfer; type: functional; conditions: Lodderomyces parapsilosis, MTCC 1744, 24 h
Bacillus subtilis [8] = assay: Antibacterial activity against Bacillus subtilis MTCC 121 after 24 hrs by well diffusion method; type: functional; conditions: MTCC 121, 24 h
Pseudomonas aeruginosa [9] = assay: Antibacterial activity against Pseudomonas aeruginosa MTCC 2453 after 24 hrs by well diffusion method; type: functional; conditions: MTCC 2453, 24 h
Candida albicans [10] = assay: Antifungal activity against Candida albicans MTCC 3017 after 24 hrs by well diffusion method; type: functional; conditions: MTCC 3017, 24 h
Micrococcus luteus [11] = assay: Antibacterial activity against Micrococcus luteus MTCC 2470 after 24 hrs by well diffusion method; type: functional; conditions: MTCC 2470, 24 h
Candida albicans [12] = assay: Fungicidal activity against Candida albicans MTCC 3018 incubated for 24 hrs followed by transfer of microbial suspension to Sabouraud dextrose agar plates and measured after 24 hrs post transfer; type: functional; conditions: MTCC 3018, 24 h
[Candida] aaseri [13] = Antifungal activity against Candida aaseri MTCC 1962 after 24 hrs by well diffusion method; type: functional; conditions: Yamadazyma aaseri, MTCC 1962, 24 h
Candida albicans [14] = assay: Fungicidal activity against Candida albicans MTCC 227 incubated for 24 hrs followed by transfer of microbial suspension to Sabouraud dextrose agar plates and measured after 24 hrs post transfer; type: functional; conditions: MTCC 227, 24 h
Candida albicans [15] = assay: Fungicidal activity against Candida albicans MTCC 854 incubated for 24 hrs followed by transfer of microbial suspension to Sabouraud dextrose agar plates and measured after 24 hrs post transfer; type: functional; conditions: MTCC 854, 24 h
Bacillus subtilis [16] = assay: Antibiofilm activity against Bacillus subtilis MTCC 121 after 24 hrs by crystal violet staining-based assay; type: functional, organism-based; conditions: Bacillus subtilis, MTCC 121, 24 h; read-out: IC50
Pichia kudriavzevii [17] = assay: Fungicidal activity against Candida krusei MTCC 3020 incubated for 24 hrs followed by transfer of microbial suspension to Sabouraud dextrose agar plates and measured after 24 hrs post transfer; type: functional
Candida albicans [18] = assay: Fungicidal activity against Candida albicans MTCC 3958 incubated for 24 hrs followed by transfer of microbial suspension to Sabouraud dextrose agar plates and measured after 24 hrs post transfer; type: functional; conditions: MTCC 3958, 24 h
Candida albicans [19] = assay: Antifungal activity against Candida albicans MTCC 1637 after 24 hrs by well diffusion method; type: functional; conditions: MTCC 1637, 24 h
Candida albicans [20] = assay: Fungicidal activity against Candida albicans MTCC 3017 incubated for 24 hrs followed by transfer of microbial suspension to Sabouraud dextrose agar plates and measured after 24 hrs post transfer; type: functional; conditions: MTCC 3017, 24 h
Staphylococcus aureus [21] = assay: Antibacterial activity against Staphylococcus aureus MLS16 MTCC 2940 after 24 hrs by well diffusion method; type: functional; conditions: MLS16 MTCC 2940, 24 h
Candida albicans [22] = assay: Fungicidal activity against Candida albicans MTCC 183 incubated for 24 hrs followed by transfer of microbial suspension to Sabouraud dextrose agar plates and measured after 24 hrs post transfer; type: functional; conditions: MTCC 183, 24 h
Staphylococcus aureus [23] = assay: Bactericidal activity against Staphylococcus aureus MTCC 96 incubated for 24 hrs followed by transfer of microbial suspension to Mueller Hinton agar plates and measured after 24 hrs post transfer; type: functional; conditions: MTCC 96, 24 h
Nakaseomyces glabratus [24] = assay: Fungicidal activity against Candida glabrata MTCC 3019 incubated for 24 hrs followed by transfer of microbial suspension to Sabouraud dextrose agar plates and measured after 24 hrs post transfer; type: functional
Raoultella planticola [25] = assay: Antibacterial activity against Klebsiella planticola MTCC 530 after 24 hrs by well diffusion method; type: functional; conditions: MTCC 530, 24 h
Candida albicans [26] = assay: Fungicidal activity against Candida albicans MTCC 7315 incubated for 24 hrs followed by transfer of microbial suspension to Sabouraud dextrose agar plates and measured after 24 hrs post transfer; type: functional; conditions: MTCC 7315, 24 h
Candida parapsilosis [27] = assay: Antifungal activity against Candida parapsilosis MTCC 1744 after 24 hrs by well diffusion method; type: functional; conditions: MTCC 1744, 24 h
Candida albicans [28] = assay: Antifungal activity against Candida albicans MTCC 183 after 24 hrs by well diffusion method; type: functional; conditions: MTCC 183, 24 h
Candida albicans [29] = assay: Inhibition of ergosterol in Candida albicans MTCC 183 after 20 hrs by UV spectrophotometric method; type: functional, organism-based
Candida albicans [30] = assay: Antifungal activity against Candida albicans MTCC 227 after 24 hrs by well diffusion method; type: functional; conditions: MTCC 227, 24 h
Candida albicans [31] = assay: Fungicidal activity against Candida albicans MTCC 4748 incubated for 24 hrs followed by transfer of microbial suspension to Sabouraud dextrose agar plates and measured after 24 hrs post transfer; type: functional; conditions: MTCC 4748, 24 h
Candida albicans [32] = assay: Antifungal activity against Candida albicans MTCC 4748 after 24 hrs by well diffusion method; type: functional; conditions: MTCC 4748, 24 h
Pseudomonas aeruginosa [33] = assay: Antibiofilm activity against Pseudomonas aeruginosa MTCC 2453 after 24 hrs by crystal violet staining-based assay; type: functional, organism-based; conditions: Pseudomonas aeruginosa, MTCC 2453, 24 h; read-out: IC50
Escherichia coli [34] = assay: Antibacterial activity against Escherichia coli MTCC 739 after 24 hrs by well diffusion method; type: functional; conditions: MTCC 739, 24 h
Pichia kudriavzevii [35] = assay: Antifungal activity against Candida krusei MTCC 3020 after 24 hrs by well diffusion method; type: functional
Pichia sporocuriosa [36] = assay: Antifungal activity against Issatchenkia hanoiensis MTCC 4755 after 24 hrs by well diffusion method; type: functional; conditions: MTCC 4755, 24 h
Candida albicans [37] = assay: Antifungal activity against Candida albicans MTCC 7315 after 24 hrs by well diffusion method; type: functional; conditions: MTCC 7315, 24 h
Pichia sporocuriosa [38] = assay: Fungicidal activity against Issatchenkia hanoiensis MTCC 4755 incubated for 24 hrs followed by transfer of microbial suspension to Sabouraud dextrose agar plates and measured after 24 hrs post transfer; type: functional; conditions: MTCC 4755, 24 h
[Candida] aaseri [39] = Fungicidal activity against Candida aaseri MTCC 1962 incubated for 24 hrs followed by transfer of microbial suspension to Sabouraud dextrose agar plates and measured after 24 hrs post transfer; type: functional; conditions: Yamadazyma aaseri, MTCC 1962, 24 h
Staphylococcus aureus [40] = assay: Antibiofilm activity against Staphylococcus aureus MLS16 MTCC 2940 after 24 hrs by crystal violet staining-based assay; type: functional, organism-based; conditions: Staphylococcus aureus, MLS16 MTCC 2940, 24 h; read-out: IC50
Candida albicans [41] = assay: Antifungal activity against Candida albicans MTCC 3018 after 24 hrs by well diffusion method; type: functional; conditions: MTCC 3018, 24 h
Staphylococcus aureus [42] = assay: Bactericidal activity against Staphylococcus aureus MLS16 MTCC 2940 incubated for 24 hrs followed by transfer of microbial suspension to Mueller Hinton agar plates and measured after 24 hrs post transfer; type: functional; conditions: MLS16 MTCC 2940, 24 h
Raoultella planticola [43] = assay: Bactericidal activity against Klebsiella planticola MTCC 530 incubated for 24 hrs followed by transfer of microbial suspension to Mueller Hinton agar plates and measured after 24 hrs post transfer; type: functional; conditions: MTCC 530, 24 h
Escherichia coli [44] = assay: Bactericidal activity against Escherichia coli MTCC 739 incubated for 24 hrs followed by transfer of microbial suspension to Mueller Hinton agar plates and measured after 24 hrs post transfer; type: functional; conditions: MTCC 739, 24 h
Raoultella planticola [45] = assay: Antibiofilm activity against Klebsiella planticola MTCC 530 after 24 hrs by crystal violet staining-based assay; type: functional, organism-based; conditions: Klebsiella planticola, MTCC 530, 24 h; read-out: IC50
Bacillus subtilis [46] = assay: Bactericidal activity against Bacillus subtilis MTCC 121 incubated for 24 hrs followed by transfer of microbial suspension to Mueller Hinton agar plates and measured after 24 hrs post transfer; type: functional; conditions: MTCC 121, 24 h
Candida albicans [47] = assay: Fungicidal activity against Candida albicans MTCC 1637 incubated for 24 hrs followed by transfer of microbial suspension to Sabouraud dextrose agar plates and measured after 24 hrs post transfer; type: functional; conditions: MTCC 1637, 24 h
Nakaseomyces glabratus [48] = assay: Antifungal activity against Candida glabrata MTCC 3019 after 24 hrs by well diffusion method; type: functional

CN1CCN(C(=O)c2nc(-c3ccccc3)c3c(C(F)(F)F)cc(-c4ccccc4)nc3n2)CC1
IC50 (Staphylococcus aureus [1]): 5.4 µg/mL (≈ 11.3 µM) | MBC (Pseudomonas aeruginosa [2]): 62.4 µg/mL (≈ 131 µM) | MIC (Candida albicans [3]): 7.8 µg/mL (≈ 16.3 µM) | MIC (Candida albicans [4]): 7.8 µg/mL (≈ 16.3 µM) | MBC (Micrococcus luteus [5]): 15.6 µg/mL (≈ 32.7 µM) | MIC (Staphylococcus aureus [6]): 7.8 µg/mL (≈ 16.3 µM) | MFC (Candida parapsilosis [7]): 62.5 µg/mL (≈ 131 µM) | MIC (Bacillus subtilis [8]): 15.6 µg/mL (≈ 32.7 µM) | MIC (Pseudomonas aeruginosa [9]): 31.2 µg/mL (≈ 65.3 µM) | MIC (Candida albicans [10]): 3.9 µg/mL (≈ 8.17 µM) | MIC (Micrococcus luteus [11]): 15.6 µg/mL (≈ 32.7 µM) | MFC (Candida albicans [12]): 31.2 µg/mL (≈ 65.3 µM) | MIC ([Candida] aaseri [13]): 7.8 µg/mL (≈ 16.3 µM) | MFC (Candida albicans [14]): 7.8 µg/mL (≈ 16.3 µM) | MFC (Candida albicans [15]): 15.6 µg/mL (≈ 32.7 µM) | IC50 (Bacillus subtilis [16]): 10.8 µg/mL (≈ 22.6 µM) | MFC (Pichia kudriavzevii [17]): inactive | MFC (Candida albicans [18]): 15.6 µg/mL (≈ 32.7 µM) | MIC (Candida albicans [19]): 7.8 µg/mL (≈ 16.3 µM) | MFC (Candida albicans [20]): 7.8 µg/mL (≈ 16.3 µM) | MIC (Staphylococcus aureus [21]): 15.6 µg/mL (≈ 32.7 µM) | MFC (Candida albicans [22]): 3.9 µg/mL (≈ 8.17 µM) | MBC (Staphylococcus aureus [23]): 15.6 µg/mL (≈ 32.7 µM) | MFC (Nakaseomyces glabratus [24]): inactive | MIC (Raoultella planticola [25]): 31.2 µg/mL (≈ 65.3 µM) | MFC (Candida albicans [26]): 62.5 µg/mL (≈ 131 µM) | MIC (Candida parapsilosis [27]): 31.2 µg/mL (≈ 65.3 µM) | MIC (Candida albicans [28]): 3.9 µg/mL (≈ 8.17 µM) | inhibition (Candida albicans [29]): Dose-dependent effect | MIC (Candida albicans [30]): 3.9 µg/mL (≈ 8.17 µM) | MFC (Candida albicans [31]): 31.2 µg/mL (≈ 65.3 µM) | MIC (Candida albicans [32]): 15.6 µg/mL (≈ 32.7 µM) | IC50 (Pseudomonas aeruginosa [33]): 21.6 µg/mL (≈ 45.2 µM) | MIC (Escherichia coli [34]): 15.6 µg/mL (≈ 32.7 µM) | MIC (Pichia kudriavzevii [35]): inactive | MIC (Pichia sporocuriosa [36]): 15.6 µg/mL (≈ 32.7 µM) | MIC (Candida albicans [37]): 31.2 µg/mL (≈ 65.3 µM) | MFC (Pichia sporocuriosa [38]): 31.2 µg/mL (≈ 65.3 µM) | MFC ([Candida] aaseri [39]): 15.6 µg/mL (≈ 32.7 µM) | IC50 (Staphylococcus aureus [40]): 10.8 µg/mL (≈ 22.6 µM) | MIC (Candida albicans [41]): 15.6 µg/mL (≈ 32.7 µM) | MBC (Staphylococcus aureus [42]): 31.2 µg/mL (≈ 65.3 µM) | MBC (Raoultella planticola [43]): 62.4 µg/mL (≈ 131 µM) | MBC (Escherichia coli [44]): 31.2 µg/mL (≈ 65.3 µM) | IC50 (Raoultella planticola [45]): 21.6 µg/mL (≈ 45.2 µM) | MBC (Bacillus subtilis [46]): 31.2 µg/mL (≈ 65.3 µM) | MFC (Candida albicans [47]): 15.6 µg/mL (≈ 32.7 µM) | MIC (Nakaseomyces glabratus [48]): inactive
